# According to PMC9326216, “Treatment of Cardiovascular Dysfunction with PDE3-Inhibitors in Moderate and Severe Hypothermia—Effects on Cellular Elimination of Cyclic Adenosine Monophosphate and Cyclic Guanosine Monophosphate” (Frontiers in Physiology, 2022):
# Tests used:
# [1] = target: T1, ABCC4 (Homo sapiens, UniProt O15439); assay: biochemical; format: biochemical; details: cAMP-efflux, inside-out vesicles; for IC50: 20 µM 3H-cAMP, 60 min; for Ki: ABCC4 Ki
# T1 sequence (O15439 1-1325): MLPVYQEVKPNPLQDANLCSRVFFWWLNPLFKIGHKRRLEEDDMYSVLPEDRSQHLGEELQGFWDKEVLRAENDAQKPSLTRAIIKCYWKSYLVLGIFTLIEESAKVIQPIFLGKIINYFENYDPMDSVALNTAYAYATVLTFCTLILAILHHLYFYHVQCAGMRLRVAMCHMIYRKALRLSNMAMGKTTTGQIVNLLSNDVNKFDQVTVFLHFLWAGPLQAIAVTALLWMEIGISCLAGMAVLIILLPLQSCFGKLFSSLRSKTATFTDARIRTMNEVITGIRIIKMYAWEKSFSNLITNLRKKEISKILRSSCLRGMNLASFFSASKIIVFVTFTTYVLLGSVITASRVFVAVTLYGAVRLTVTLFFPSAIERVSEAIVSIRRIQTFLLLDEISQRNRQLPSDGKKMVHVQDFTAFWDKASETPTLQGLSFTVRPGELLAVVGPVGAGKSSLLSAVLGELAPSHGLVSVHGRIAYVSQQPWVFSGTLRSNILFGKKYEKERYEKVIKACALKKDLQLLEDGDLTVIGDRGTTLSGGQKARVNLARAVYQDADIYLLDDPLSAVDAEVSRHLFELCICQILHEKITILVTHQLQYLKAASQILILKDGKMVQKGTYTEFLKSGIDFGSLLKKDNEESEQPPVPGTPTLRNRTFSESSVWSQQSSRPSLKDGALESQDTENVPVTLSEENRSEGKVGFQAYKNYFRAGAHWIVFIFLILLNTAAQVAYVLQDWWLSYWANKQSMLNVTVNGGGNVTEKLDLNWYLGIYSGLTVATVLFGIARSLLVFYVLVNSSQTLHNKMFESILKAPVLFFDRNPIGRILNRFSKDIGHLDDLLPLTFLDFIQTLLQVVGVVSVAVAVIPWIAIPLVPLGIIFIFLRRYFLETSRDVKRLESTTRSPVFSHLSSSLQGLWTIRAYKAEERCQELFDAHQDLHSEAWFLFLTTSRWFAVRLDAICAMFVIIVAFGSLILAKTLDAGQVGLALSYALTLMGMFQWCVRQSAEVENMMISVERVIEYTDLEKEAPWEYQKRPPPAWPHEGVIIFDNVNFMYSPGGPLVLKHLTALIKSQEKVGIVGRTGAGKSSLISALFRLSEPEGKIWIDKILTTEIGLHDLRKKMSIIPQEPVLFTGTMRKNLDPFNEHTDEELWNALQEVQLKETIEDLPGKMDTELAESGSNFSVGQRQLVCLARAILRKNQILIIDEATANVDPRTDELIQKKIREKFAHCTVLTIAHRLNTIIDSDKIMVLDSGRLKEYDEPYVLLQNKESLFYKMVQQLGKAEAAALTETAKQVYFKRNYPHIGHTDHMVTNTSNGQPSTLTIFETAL
# Description: Freshly collected EDTA blood from healthy donors (n = 35) was prepared at 0°C–4°C, starting by separating the erythrocytes from plasma by centrifugation at 2,300 g for approximately 15 min. […] Lysis followed thereafter, with ten volumes of 5 mM Tris-HCl, 0.5 mM EGTA, 4 mM KCl (pH 8.1) and washed by repeated centrifugation at 20,000 g for 20 min and resuspension in the same buffer. Vesiculation was initiated by adding 39 volumes of a […] buffer ([…] Tris-HCl, pH 8.2) to one volume of cell suspension and completed by forcing the solution five times through a 27-gauge syringe needle to promote homogenization of the membranes. […] The resulting IOVs, which still contained ABC-transporters in the membrane, enabled us to control the intracellular environment, in this case the surrounding medium, and collect the cyclic nucleotides within. […] Radioactive labeled (^3H)-cAMP or (^3H)-cGMP (Perkin Elmer, Boston, MA, United States) were added to the incubation solutions in the concentration 20 and 2 μM, respectively, depending on the transporter examined, together with the appointed study drug in concentrations up to 1 mM. […] Next step was to collect the IOVs, which was done by filtration through a nitrocellulose membrane (Bio-Rad Laboratories, Feldkirchen, Germany), and then drying it. The resulting collection of radioactivity upon the filter, was later quantified by using a Packard TopCount NXT (Packard, Downers Grove, IL, United states) after adding scintillation fluid (MicroScint-O, PerkinElmer, Groningen, Netherlands).
# IC50 and Ki values were calculated for each of the drugs, both for their ability to inhibit cAMP- and cGMP- efflux, as well as PDE3 and PDE5 activity. […] Inhibition curves were created accordingly, both with and without adjustment for normothermic control.
# [2] = test system: erythrocytes; assay: Intracellular access of the drugs in erythrocytes (LC-MS); format: in vitro ADME, human; details: 30 min incubation, milrinone 10 µM, amrinone 100 µM, levosimendan 1 µM
# Description: Fresh (<24 h) EDTA blood from healthy donors (n = 18) was obtained and washed with Krebs-Ringer-Phosphate-Buffer containing glucose (KRPB/G, pH 7.4) and centrifuged (10 min, 1,000 g) three consecutive times. Plasma and buffy coat were removed. KRPB/G was added to the cell solution to bring it to the ratio 1:2.5. Hematocrit (Hct) was measured and adjusted with additional buffer to reach 0.44, in order to give the final Hct of 0.40 in the incubation solution. […] The reaction was stopped by placing the test tubes on ice and adding 4 ml of ice cold KRFB/G. The samples were subsequently centrifugated (5 min, 600 g), then washed with KRFB/G once more and centrifugation was repeated twice. 50 µl of the remaining red blood cell suspension was transferred to Eppendorf tubes. 50 µl 500 nM IS-Milrinone-d3 was added as an internal standard (TLC Pharmaceutical Standards Ltd.). 200 µl ZnSO4 was added to each test sample, to induce lysis of the cells, and mixed in a vortex mixer. 30 µl of the samples were used for measurement of protein concentration, the rest was mixed with 500 µl acetonitrile and centrifugated (2 min, 13400 g). Finally, 100 µl of the solution was collected for analysis using mass spectrometry (MS).
# Liquid chromatography tandem mass spectrometry (LC-MS) was used to assess concentrations of the inhibitors for experiments performed to determine intracellular access of these drugs, as well as to quantify levels of cAMP/AMP and cGMP/GMP for the PDE3-and PDE5-inhibition plots. Internal standards were used, as described previously. There was a linearity from 0.2 nM to at least 2000 nM (r^2 > 0.998) for cAMP, AMP, and cGMP. For GMP, linearity was present from 2 nM to at least 2000 nM (r^2 > 0.998). Concerning PDE3-inhibitors, the linearity was found at 10 nM to at least 5,000 nM (r^2 > 0.99). Lower limit of quantification (LLOQ) was 0.2 for cAMP, cGMP, and AMP, 2 nM for GMP and 10 nM for PDE3-inhibitors (2 µl injection volume).
# Intracellular concentrations of drugs were adjusted for protein concentrations in each sample. The total incubation concentrations were also adjusted for protein concentrations to evaluate the degree of access in percentage. Statistical analysis was performed using one-way ANOVA with Holm-Sidak multiple comparisons post hoc test at each temperature. ANOVA on ranks with Dunn post hoc test was used when the results were not normally distributed. The results are presented as means ± standard error of mean (SEM). p-values < 0.05 were considered significant results. Degrees of freedom (dF) is given as between group values. SigmaPlot 14.0 (Systat Software, San Jose, CA, United States) was used for all analysis, as well as creating the graphs.
smiles,measurement,setting,value
Cc1[nH]c(=O)c(C#N)cc1-c1ccncc1 [Milrinone],IC50,"[1]; ABCC4 IC50, 28°C",37.4 ± 24.5 µM
same,IC50,"[1]; ABCC4 IC50, 32°C",32.9 ± 14.6 µM
same,IC50,"[1]; ABCC4 IC50, 34°C",67 ± 22.6 µM
same,IC50,"[1]; ABCC4 IC50, 37°C",58.9 ± 13.1 µM
same,Ki,[1]; 28°C,22.7 ± 14.9 µM
same,Ki,[1]; 32°C,20 ± 8.86 µM
same,Ki,[1]; 34°C,40.6 ± 13.7 µM
same,Ki,[1]; 37°C,35.7 ± 7.94 µM
same,"Intracellular access, % of drug concentration per gram protein in the incubation solution",[2]; 28°C,15.06 ± 0.544%
same,"Intracellular access, % of drug concentration per gram protein in the incubation solution",[2]; 34°C,11.41 ± 1.675%
